{
  "source": "patent US4513008A",
  "about": "“Virucidal compositions and therapy” (The Vinoxen Company, Inc., priority 1982, dated 1985)",
  "test_system": "HSV-2",
  "test": "In vivo mouse bioassay: intravaginal HSV-2 infection, topical treatment",
  "parameters": "species or system HSV-2 strain 333 in female Swiss Webster mice; key to Max. Lesion Score: 0: no clinical signs of vaginal infection; ±: slight perivaginal redness; perivaginal redness and swelling of 1-2 mm; perivaginal redness and swelling of 2-3 mm; perivaginal and perianal redness and swelling of 3-4 mm; perivaginal and perianal redness and swelling of 4 mm or more, with exudate",
  "details": "for # Infected, Day 14 / # of Deaths, Day 14: 10 animals/group",
  "note": "“Also recorded” adds a separate entry of the source.",
  "data": [
    {"compound": "CCC=CCC=CCC=CCC=CCC=CCC=CCCC(=O)O", "note": "[DHA, 4,7,10,13,16,19 Docosahexaenoic Acid]", "values": [
      {"measurement": "% Mortality", "setting": "DMSO & High DHA (10 mg/ml)", "result": 20, "unit": "%"},
      {"measurement": "Day of Maximum % Morbidity", "setting": "DMSO & High DHA (10 mg/ml)", "result": 7, "unit": "days"},
      {"measurement": "Maximum % Morbidity", "setting": "DMSO & High DHA (10 mg/ml)", "result": 40, "unit": "%"},
      {"measurement": "Mean Day of Death", "setting": "DMSO & High DHA (10 mg/ml)", "result": 8.5, "unit": "days"},
      {"measurement": "% Mortality", "setting": "DMSO & Low DHA (1 mg/ml)", "result": 30, "unit": "%"},
      {"measurement": "Day of Maximum % Morbidity", "setting": "DMSO & Low DHA (1 mg/ml)", "result": 7, "unit": "days"},
      {"measurement": "Maximum % Morbidity", "setting": "DMSO & Low DHA (1 mg/ml)", "result": 40, "unit": "%"},
      {"measurement": "Mean Day of Death", "setting": "DMSO & Low DHA (1 mg/ml)", "result": 11.7, "unit": "days"},
      {"measurement": "# Infected, Day 14", "setting": "High DHA 10 mg/ml in DMSO", "result": 4},
      {"measurement": "# of Deaths, Day 14", "setting": "High DHA 10 mg/ml in DMSO", "result": 2},
      {"measurement": "# Infected, Day 14", "setting": "High DHA 10 mg/ml in PEG", "result": 5},
      {"measurement": "# of Deaths, Day 14", "setting": "High DHA 10 mg/ml in PEG", "result": 3},
      {"measurement": "# Infected, Day 14", "setting": "Low DHA 1 mg/ml in DMSO", "result": 4},
      {"measurement": "# of Deaths, Day 14", "setting": "Low DHA 1 mg/ml in DMSO", "result": 2},
      {"measurement": "Max. Lesion Score", "setting": "Low DHA 1 mg/ml in PEG", "result": "±"},
      {"measurement": "# Infected, Day 14", "setting": "Low DHA 1 mg/ml in PEG", "result": 1},
      {"measurement": "# of Deaths, Day 14", "setting": "Low DHA 1 mg/ml in PEG", "result": 0},
      {"measurement": "% Mortality", "setting": "Ointment & High DHA (10 mg/ml)", "result": 30, "unit": "%"},
      {"measurement": "Day of Maximum % Morbidity", "setting": "Ointment & High DHA (10 mg/ml)", "result": 7, "unit": "days"},
      {"measurement": "Maximum % Morbidity", "setting": "Ointment & High DHA (10 mg/ml)", "result": 50, "unit": "%"},
      {"measurement": "Mean Day of Death", "setting": "Ointment & High DHA (10 mg/ml)", "result": 11.7, "unit": "days"},
      {"measurement": "% Mortality", "setting": "Ointment & Low DHA (1 mg/ml)", "result": 0, "unit": "%"},
      {"measurement": "Day of Maximum % Morbidity", "setting": "Ointment & Low DHA (1 mg/ml)", "result": 6, "unit": "days"},
      {"measurement": "Maximum % Morbidity", "setting": "Ointment & Low DHA (1 mg/ml)", "result": 10, "unit": "%"},
      {"measurement": "Mean Day of Death", "setting": "Ointment & Low DHA (1 mg/ml)", "result": "> 14", "unit": "days"},
      {"measurement": "efficacy in mice in words", "setting": "topical, HSV-2 infected mice", "result": "effective virucidal activity against HSV-2, especially the low dose ointment preparation; also recorded: highly effective in comparison with ACV in reducing lesions and in reducing mortality rates in mice; also recorded: a low dose of DHA in the particular ointment vehicle used for test purposes appeared to have a higher activity than a high dose of the same material in the same vehicle"}
    ]}
  ]
}
